The values that follow are results of earlier work, collected in patent US8859761B2, “Refining process of Cefamandole sodium” (Hainan Lingkang Pharmaceutical Co., Ltd., priority 2011, dated 2014).

Regarding `Cn1nnnc1SCC1=C(C(=O)[O-])N2C(=O)C(NC(=O)C(OC=O)c3ccccc3)C2SC1.[Na+]` [Cefamandole nafate, sodium 7-D-(2-formyloxyphenylacetamide)-3-[(1-methyl-1H-tetrazol-5-yl)thiomethyl]-3-cephem-4-carboxylate], the solubility in ethanol result (ethanol) is recorded as “almost insoluble”. Besides, the solubility in water entry (water) was “dissolves well”.
